According to US10441569B2, “Self-emulsifying formulations of DIM-related indoles” (BioResponse, L.L.C., priority 2015, dated 2019):
Converted amounts (≈) assume the structure as drawn. Like-named read-outs stand apart in the source and are kept apart here.

Legend:
[1] = cited from earlier work; for log P: no own measurement; for Log P of 2nd API drug: table of exemplary 2nd API drugs
[2] = Intra-individual comparison of DIM plasma levels, one adult subject; format: in vivo; conditions: human, same adult subject, 300 mg oral
Procedure: Repeated single-use of 300 mg oral doses of DIM in different DIM formulations was conducted. Absorption studies using the same adult subject on separate test days were performed. This allowed comparison of DIM absorption and Plasma Pharmacokinetics through comparison of DIM plasma levels measured following administration of unformulated crystalline DIM, following administration of absorption-enhanced, microencapsulated DIM (BR-DIM), following administration of DIM SMEDDS Formulation “D” without Poloxamer 124, and following administration of DIM SMEDDS Formulation “G” with Poloxamer 124, to the human subject. The same oral administration and timed plasma sampling protocol was used on different study days, separated by at least 2 weeks. Plasma level results for each time point are presented in the following chart.

[3] = Experimental log P of DIM (octanol / aqueous shake-flask, HPLC); format: physicochemical; conditions: octanol / aqueous media (separate shake-flask solubilities); from octanol and aqueous shake-flask results; read-out: Experimental log P Determination
Procedure: (§1) In directly determining the solubility of DIM the shake-flask method for determination of maximum solubility in aqueous media was utilized. The solubility was determined as described by Lindenberg et al., 2004, Eur J Pharm Biopharm. 58(2):265-78. The drug was weighed in excess of its expected solubility in Uniprep® vials equipped with a 0.45-μm membrane filter, and 2 ml of Milli-Q water, 0.01N HCL (pH 2.0), or phosphate buffer (pH 7.4) (USP) was added into the vial. The vials were incubated at 37±0.5° C. while shaking on a “Polymax 1040” orbital shaker (Heidolph, Schwabach). The samples of the solutions were taken after 4 or 24 hours by pressing the Uniprep® plunger down, diluted as appropriate, and the concentration of DIM was analyzed by HPLC, as described below. The measurements were done in triplicate. The maximum concentration of DIM in aqueous media used in this study was 0.6 μg/ml. The solubility or stability was not influenced by pH and was similar in water, 0.01N HCl or PBS (pH 7.4).

[4] = Solubility of DIM in individual excipients (incremental addition, microscopic observation); format: physicochemical
Procedure: The first step in this development process was the testing of a variety of excipients chosen as potentially active in solubilizing DIM. […] The method involved weighing of approximately 2 grams of each of the liquid excipients into a small vial. Subsequently, a small amount of DIM was added and the mixture was shaken.
The method involved weighing of approximately 2 grams of each of the liquid excipients into a small vial. Subsequently, a small amount of DIM was added and the mixture was shaken. […] Continued testing of acceptable oil solvents for, e.g., nutritional supplement, self-emulsifying formulations using DIM as a representative DIM-related indole active ingredient included testing of the following oils: […]

[5] = Particle size after dispersion and spontaneous emulsion formation in water (laser light scattering); format: physicochemical; conditions: Malvern Mastersizer, DIM as supplied by BioResponse
Procedure: Each of the formulations were tested by dispersing approximately 1 gram of the candidate formulation in 200 mL of deionized water at approximately 37° C. with slow stirring of a magnetic spin bar in a 1 L beaker. Within five minutes of the addition, sufficient mixture was added to a Malvern Mastersizer dynamic laser light scattering instrument to satisfy the obscuration of the laser beams needed for measurement.
Some of the formulations were formulated with and without Soluplus and with and without phosphatidyl choline-rich isolates from lecithin. The formulations were tested by dispersing approximately 1 gram of the candidate formulation in 200 mL of deionized water at approximately 37° C. with slow stirring of a magnetic spin bar in a 1 L beaker. Within five minutes of the addition, sufficient mixture was added to a Malvern Mastersizer dynamic laser light scattering instrument to satisfy the obscuration of the laser beams needed for measurement.
The dispersions of Formulations R and T were tested for particle size by laser diffraction following dispersion and spontaneous emulsion formation in water. […] The particle size determined is expressed as diameter in microns (μ) in the following chart, and comparison is made to other nutritional and pharmaceutical formulations described herein: […]

[6] = Shake-flask determination of maximum solubility of DIM; format: physicochemical; conditions: for solubility: 37 °C, thermodynamic from solid, read-out: maximal solubility
Procedure: as §1

[7] = Single dose human oral bioavailability study (plasma DIM by LC-MS/MS); format: in vivo; conditions: both sexes
Procedure: Study Design: Single Center, Single-Blind, Single Dose, Oral Bioavailability Study, with Subject Crossover.
In Part I of the Study, a treatment group was administered a 300 mg dose of DIM from BR-DIM or a 300 mg dose of DIM from crystalline DIM on the first study day, followed by crossover to the other DIM formulation on the second study day, at least 14 days following the first treatment. 3 subjects were given crystalline DIM, 4 subjects were given BR-DIM.
In Part II of the Study, five individuals, four of whom participated in Part I of the Study, were administered a 300 mg dose of DIM from DIM SMEDDS Formulation D. Testing of DIM SMEDDS formula D took place on one day with 5 subjects. The subjects were all healthy, adult volunteers, both male and female, not consuming DIM containing supplements and in a fasting state on study days. Volunteers agreed not to consume cruciferous vegetable for one week prior to study days. Study groups consisted of 3, 4, or 5 individuals.
A baseline blood specimen was collected. For Part I of the Study, subjects ingested matching, opaque gelatin capsules containing either crystalline DIM (300 mg) or BR-DIM providing 300 mg DIM. Then, the subjects provided 8 cc samples of blood was collected at Baseline, and 1 hr, 2 hr, 3 hr, 4 hr, and 6 hr after administration of each of the formulations. A standard small meal was given at 4 hrs.
A baseline blood specimen was collected. Subjects ingested opaque gelatin capsules containing SEDDS DIM formulation (in particular, Formulation D described above) providing 300 mg dissolved DIM. The DIM SMEDDS formulation was provided in 3 hard gelatin capsules each containing 100 mg of DIM. Subsequently, 8 cc samples of blood were obtained and 30 cc samples of urine will be obtained according to the following chart. Blood was collected at Baseline, and 1 hr, 2 hr, 3 hr, 4 hr, and 6 hr after administration of the drug. A standard small meal was given at 4 hrs.
Blood sample handling: Within 15 minutes, plasma was centrifuged and frozen, stored on dry ice, then stored at minus 80 until assayed.
Pharmacokinetic evaluation was performed for all subjects. Blood samples (˜8 ml for each) were collected at 0 (baseline), 1, 2, 3, 4, and 6 hours after the oral administration of the dose of DIM, BR-DIM, or DIM SMEDDS formulation (i.e., Formulation D described above). Within 15 minutes of the collection, the blood samples were centrifuged at 4° C., at 2000 g for 10 minutes, and plasma was collected immediately after centrifugation and transferred to the screw-cap polypropylene cryogenic tubes. The plasma samples were stored at −80° C. until analysis.
The concentrations of DIM in human plasma samples were determined by a validated high-performance liquid chromatography with tandem mass spectrometry (LC-MS/MS) method. Briefly, to 50 μl human plasma, 100 μl of 2% formic acid in methanol (containing 1 μg/mL internal standard zileuton) was added to precipitate proteins. The mixture was vortex-mixed for 1 minute, and centrifuged at 14,000 g at 4° C. for 10 minutes. The supernatant was collected and 10 μl was injected into the LC-MS/MS system. Chromatographic analysis was performed using a Waters model 2690 separation system (Milford, Mass., USA). The analytes were separated on a Waters X-Terra MS column (150 mm×2.1 mm i.d.) using a mobile phase consisting of methanol/0.45% formic acid (70:30, v/v), and isocratic flow at 0.2 mL/min. The analytes were monitored by a Waters Micromass triple quadrupole mass spectrometer (Milford, Mass., USA) using an electrospray probe in the positive ionization mode operating at a cone voltage of 23V for DIM and 13V for the internal standard zileuton. Samples were introduced into the ionization source through a heated nebulized probe (350° C.). The collision energy was set at 30 eV and 9 eV for DIM and zileuton, respectively. The transitions at 129.9>76.8 and 237.1>161.1 were monitored for DIM and zileuton, respectively. […]

[8] = healthy humans, single oral dose 300 mg DIM, averaged

## CC(O)(CS(=O)(=O)c1ccc(F)cc1)C(=O)Nc1ccc(C#N)c(C(F)(F)F)c1 (centres unmarked) [Biculatamide, Bicalutamide]
[1]
  log P: 4.94

## c1ccc2c(Cc3c[nH]c4ccccc34)c[nH]c2c1 [DIM, 3,3′-diindolylmethane]
[2]
  AUC: 17 ng·h/mL
  Cmax: 6.8 ng/mL
[2]; time 0 hr, read-out: Plasma level of DIM
  concentration at 0 h: 0 ng/mL
[2]; time 1 hr, read-out: Plasma level of DIM
  concentration at 1 h: 4.5 ng/mL
[2]; time 2 hr, read-out: Plasma level of DIM
  concentration at 2 h: 6.8 ng/mL
[2]; time 3 hr, read-out: Plasma level of DIM
  concentration at 3 h: 4.7 ng/mL
[2]; time 4 hr, read-out: Plasma level of DIM
  concentration at 4 h: 2.6 ng/mL
[3]
  logP: 3.58
[4]; in Black Cumin oil
  DIM Solubility %: 2%
[4]; in Capryol 90 (Propylene glycol monocaprylate)
  DIM Solubility: 7%
[4]; in Capryol PGMC (Propylene glycol monocaprylate)
  DIM Solubility: 8%
[4]; in Crodasol HS-HP (monoesters and diesters of 12-hydroxystearic acid and macrogols)
  DIM Solubility: 14%
[4]; in Gelucire 44/14 (Lauroyl polyoxyl-32 glycerides)
  DIM Solubility: 19%
[4]; in Labrafac AC WL1349 (Medium-chain triglycerides)
  DIM Solubility: 3%
[4]; in Labrafac PG (Propylene glycol di-caprylate)
  DIM Solubility: 4.5%^
[4]; in Labrafil M1944CS (Oleoyl polyoxyl-6 glycerides)
  DIM Solubility: 5%
[4]; in Labrasol ALF (Caprylocaproyl polyoxyl-8 glycerides)
  DIM Solubility: 25%
[4]; in Lauroylglycol 90 (Propylene glycol monolaurate)
  DIM Solubility: 3%
[4]; in Maisine 35-1 (Glyceryl monolinoleate)
  DIM Solubility: 2%
[4]; in Peceol (Glycerol monooleate)
  DIM Solubility: 2%
[4]; in Peppermint oil
  DIM Solubility: 4%
[4]; in Plurol Oleique (Glycerol mono/di-oleate)
  DIM Solubility: 5%
[4]; in Polysorbate 80
  DIM Solubility: 12%
[4]; in Propylene glycol
  DIM Solubility: 2%
[4]; in Rosemary Oil
  DIM Solubility %: 6%
[4]; in Transcutol (Diethylene glycol monoethyl ether)
  DIM Solubility: >25%
[4]; olive oil or sunflower oil
  ability of oil to dissolve DIM: very low ability to dissolve DIM
[5]
  Particle Size Diameter after Dispersion in Water (nm): 3,010^1^ nm
[6]; 0.01N HCl, simulated gastric fluid, aqueous acid environment of pH 2
  solubility: 0.6 µg/mL (≈ 2.44 µM)
[6]; in water
  solubility: 0.7 µg/mL (≈ 2.84 µM)
[6]; Octanol, shake-flask method, HPLC
  concentration of DIM in Octanol: 2,300 μg/ml
[6]; water, 0.01N HCl (pH 2.0) or phosphate buffer (pH 7.4), 37°C
  maximum concentration of DIM in aqueous media: 0.6 µg/mL
[7]; [8]
  AUC(0-inf): 98.5 ng·h/mL
  Cmax: 18.1 ng/mL
  Tmax: 1.7 h
  half-life: 2.2 h
[7]; time 0 hour (baseline), 300 mg oral, read-out: averaged plasma level of DIM
  concentration at 0 h: 0 ng/mL
[7]; time 1 hour, 300 mg oral, read-out: averaged plasma level of DIM
  concentration at 1 h: 17.8 ng/mL
[7]; time 2 hour, 300 mg oral, read-out: averaged plasma level of DIM
  concentration at 2 h: 16.7 ng/mL
[7]; time 3 hour, 300 mg oral, read-out: averaged plasma level of DIM
  concentration at 3 h: 10.6 ng/mL
[7]; time 4 hour, 300 mg oral, read-out: averaged plasma level of DIM
  concentration at 4 h: 10 ng/mL
[7]; time 6 hour, 300 mg oral, read-out: averaged plasma level of DIM
  concentration at 6 h: 5.8 ng/mL
[7]; time zero to infinity, 300 mg oral
  AUC: 98.5 ng·h/mL

## COc1cc2ncnc(Nc3ccc(F)c(Cl)c3)c2cc1OCCCN1CCOCC1 [Gefitinib, N-(3-chloro-4-fluoro-phenyl)-7-methoxy-6-(3-morpholin-4-ylpropoxy)quinazolin-4-amine]
[1]
  log P: 3.72
  Log P of 2nd API drug: 3.72

## CNC(=O)c1cccc2cc(Oc3ccnc4cc(OCC5(N)CC5)c(OC)cc34)ccc12 [Lucitanib, 6-[7-[(1-aminocyclopropyl)methoxy]-6-methoxyquinolin-4-yl]oxy-N-methylnaphthalene-1-carboxamide]
[1]
  log P: 3.81
  Log P of 2nd API drug: 3.81

## CCCCCCCCCCCCCCCC(=O)OC/C=C(C)/C=C/C=C(C)/C=C/C1=C(C)CCCC1(C)C [Retinyl palmitate, Retinyl Palmitate]
[1]
  log P: 5.68

## COc1cc(C)c(/C=C/C(C)=C/C=C/C(C)=C/C(=O)O)c(C)c1C [acitretin]
[1]
  log P: 5.73

## CC1=C(/C=C/C(C)=C/C=C/C(C)=C\C(=O)O)C(C)(C)CCC1 [isotretinoin, 13-cis retinoic acid]
[1]
  log P: 6.83

## CC(C)=CCC/C(C)=C/CC/C(C)=C/CC/C(C)=C/CC1=C(C)C(=O)c2ccccc2C1=O [menaquinone-4]
[1]
  log P: 10-12

## Vitamin D
[1]
  log P: 7.5
